Patent US10357447B2, “Cosmetic compositions comprising sclareolide” (Symrise AG, priority 2015, dated 2019)

Experiments:
[1] = tested on: IL-6 gene expression; assay: Particle-induced IL-6 gene expression in human epidermal keratinocytes (qRT-PCR); assay type: cell-based; conditions: for IL-6 6 h gene expression: SRM1650b
Procedure: (§1) Gene expression was analyzed via qRT-PCR.
(§2) Ginger root CO2 extract has been dissolved in DMSO and diluted in medium. […] Gene expression was analyzed via qRT-PCR. […] Table 9 compiles the results for ginger root CO2 extract altered POMC and IL-6 gene expression
(§3) Purple coneflower pressed juice has been dissolved directly in medium. […] Gene expression was analyzed via qRT-PCR. […] Table 10 compiles the results for purple coneflower pressed juice altered POMC and IL-6 gene expression
(§4) A mixture of sclareloide and ginger root CO2 extract has been dissolved directly in medium. […] Gene expression was analyzed via qRT-PCR. […] Table 11 compiles the results for […] altered POMC and IL-6 gene expression

[2] = tested on: MMP1 gene expression; assay: Particle-induced MMP1 gene expression in human epidermal keratinocytes (qRT-PCR); assay type: cell-based; conditions: for MMP1 24 h gene expression / MMP-1 24 h gene expression: SRM1650b; for MMP1 24 h gene expression: control = 1, particles alone 1.3 ± 0.03; for MMP-1 24 h gene expression: untreated = 1, particles alone 1.57 ± 0.05
Procedure: as §1

[3] = tested on: CYP1A1 gene expression; assay: Particle-induced CYP1A1 gene expression in human epidermal keratinocytes (qRT-PCR); conditions: for CYP1A1 Induction mean ± SE: NHEK adult; for CYP1A1 Induction mean ± SE / CYP1A1 gene expression, Induction mean ± SE: 10 μM; for CYP1A1 gene expression, Induction mean ± SE: indoor particles Huber990 1.5 μg/cm2
Procedure: Adult human epidermal keratinocytes were cultured in keratinocyte medium without BPE and without EGF for 24 h prior to addition of model particles (see table 1.1). The model particles were suspended in phosphate buffered saline and were sonicated for 1 min and then directly added to the keratinocytes at 1.5 μg/cm^2. […] Solutions containing the compound with maximal 0.1% DMSO were applied 2 h prior to treatment with the model particles. Gene expression was analyzed via qRT-PCR.

[4] = tested on: POMC gene expression; assay: Particle-induced POMC gene expression in human epidermal keratinocytes (qRT-PCR); assay type: cell-based; conditions: for POMC 6 h gene expression: control = 1, particles alone 1.5 ± 0.031
Procedure: as §1, §2, §3, §4

[5] = tested on: POMC protein level; assay: Particle-induced POMC protein release from HaCaT cells (ELISA of supernatant); assay type: cell-based
Procedure: II) HaCaT cells are seeded into a 96-well plate with 0.3×10^4 cells/well. After incubation over night the test compound (10 μM Sclareolide) is added to the cells and the plate is incubated for two more hours. Then diesel exhaust particles (SRM 1650b) are added to a final concentration of 1.5 μg/cm2 and the plate incubated for 24 hours. The supernatant is transferred into an ELISA plate (Cusabio, CSB-E09307 h) and the POMC protein level quantified using ELISA technique performed according to the manufacturer's instructions.

[6] = biological target: T1, AhR (Homo sapiens, UniProt P35869); assay: AhR antagonism, luciferase reporter gene assay in XRE-HepG2 cells; assay type: cell-based; conditions: 16 h or 24 h
T1 construct: endogenous in cells; host or cells: XRE-HepG2 (HepG2 carrying an XRE-driven luciferase reporter)
T1 sequence (P35869 11-848): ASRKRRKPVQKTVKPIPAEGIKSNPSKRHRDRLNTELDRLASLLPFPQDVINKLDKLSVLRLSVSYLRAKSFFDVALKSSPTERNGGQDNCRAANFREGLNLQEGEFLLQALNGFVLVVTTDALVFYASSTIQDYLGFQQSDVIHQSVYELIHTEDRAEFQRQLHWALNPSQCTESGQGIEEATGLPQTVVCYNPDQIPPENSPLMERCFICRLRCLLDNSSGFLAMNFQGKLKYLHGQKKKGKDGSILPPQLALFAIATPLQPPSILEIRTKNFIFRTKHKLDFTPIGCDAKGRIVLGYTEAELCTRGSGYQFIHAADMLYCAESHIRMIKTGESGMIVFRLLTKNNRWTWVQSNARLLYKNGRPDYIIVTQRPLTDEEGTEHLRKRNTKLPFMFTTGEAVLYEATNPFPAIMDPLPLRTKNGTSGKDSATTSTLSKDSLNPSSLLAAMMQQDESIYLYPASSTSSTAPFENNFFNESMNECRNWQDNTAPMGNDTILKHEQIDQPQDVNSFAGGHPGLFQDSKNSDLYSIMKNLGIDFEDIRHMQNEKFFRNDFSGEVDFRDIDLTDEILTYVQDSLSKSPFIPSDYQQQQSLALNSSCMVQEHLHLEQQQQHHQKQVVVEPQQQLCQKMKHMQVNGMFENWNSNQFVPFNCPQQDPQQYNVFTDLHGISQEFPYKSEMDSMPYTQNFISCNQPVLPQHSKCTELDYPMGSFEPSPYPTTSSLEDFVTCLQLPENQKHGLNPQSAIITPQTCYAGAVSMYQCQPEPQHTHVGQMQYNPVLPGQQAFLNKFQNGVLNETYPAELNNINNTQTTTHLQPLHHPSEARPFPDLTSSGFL
Procedure: For reporter gene analyses, 1×10^5 XRE-HepG2 cells/well were seeded in 12-well plates and cultured overnight. Cells were treated for 16 h or 24 h with the indicated substances.
Cell lysates were prepared, and luciferase activities were determined using the luciferase assay system. Protein concentrations were determined by using the BC Assay protein quantification kit. Luciferase activities were normalized against the protein concentration of each probe. Each sample was analyzed in triplicate.

## E/Z-2-benzylindene-5,6-dimethoxy-3,3-dimethylindan-1-one [BDDI]
[1]
  particle induced IL-6 gene expression (result in words): capable to inhibit
[1]; 1 μM, control = 1, particles alone 1.4 ± 0.041
  IL-6 6 h gene expression: 0.9 ± 0.067
[1]; 2.5 μM, control = 1, particles alone 1.4 ± 0.041
  IL-6 6 h gene expression: 0.6 ± 0.006
[1]; 10 μM, control = 1, particles alone 1.4 ± 0.041
  IL-6 6 h gene expression: 0.5 ± 0.01
[2]
  particle induced MMP1 gene expression (result in words): capable to inhibit
[2]; 1 μM
  MMP1 24 h gene expression: 0.7 ± 0.014
[2]; 2.5 μM
  MMP1 24 h gene expression: 0.8 ± 0.016
[2]; 10 μM
  MMP1 24 h gene expression: 0.5 ± 0.022
[3]; SRM1650 1.5 μg/cm2, 6 h, untreated = 1, particles alone 2.90 ± 0.12
  CYP1A1 Induction mean ± SE: 0.02 ± 0.00
[3]; SRM1650 1.5 μg/cm2, 6 h, untreated = 1, particles alone 5.33 ± 0.07
  CYP1A1 Induction mean ± SE: 1.83 ± 0.03
[3]; SRM1650 1.5 μg/cm2, 24 h, untreated = 1, particles alone 16.53 ± 0.98
  CYP1A1 Induction mean ± SE: 4.17 ± 0.09
[3]; SRM1650 1.5 μg/cm2, 24 h, untreated = 1, particles alone 23.23 ± 0.64
  CYP1A1 Induction mean ± SE: 8.77 ± 0.09
[3]; SRM2975 1.5 μg/cm2, 6 h, untreated = 1, particles alone 1.03 ± 0.03 (n.s.)
  CYP1A1 Induction mean ± SE: 0.20 ± 0.00
[3]; SRM2975 1.5 μg/cm2, 6 h, untreated = 1, particles alone 2.07 ± 0.07
  CYP1A1 Induction mean ± SE: 0.05 ± 0.0003
[3]; SRM2975 1.5 μg/cm2, 24 h, untreated = 1, particles alone 4.90 ± 0.17
  CYP1A1 Induction mean ± SE: 0.01 ± 0.00
[3]; SRM2975 1.5 μg/cm2, 24 h, untreated = 1, particles alone 5.10 ± 0.06
  CYP1A1 Induction mean ± SE: 0.60 ± 0.06
[3]; indoor as well as outdoor model particles
  particle induced Cyp1A1 gene expression (result in words): capable to inhibit
[3]; 6 h, untreated = 1, particles alone 2.70 ± 0.00
  CYP1A1 gene expression, Induction mean ± SE: 0.05 ± 0.00
[3]; 24 h, untreated = 1, particles alone 2.90 ± 0.00
  CYP1A1 gene expression, Induction mean ± SE: 0.20 ± 0.00
[4]
  particle induced POMC gene expression (result in words): capable to inhibit
[4]; 1 μM, SRM1650b
  POMC 6 h gene expression: 0.9 ± 0.018
[4]; 2.5 μM, SRM1650b
  POMC 6 h gene expression: 1.1 ± 0.02
[4]; 10 μM, SRM1650b
  POMC 6 h gene expression: 0.9 ± 0.001

## CC1(C)CCC[C@]2(C)C3CC(=O)O[C@]3(C)CC[C@@H]12 (stereo partly drawn) [Sclareolide, (3aR,5aS,9aS,9bR)-decahydro-3a,6,6,9a-tetramethyl-naphtha[2,1-b]furan-2(1H)-one]
[5]; 10 μM Sclareolide added 2 h before SRM 1650b 1.5 μg/cm2, 24 hours, control = 1.00, particles alone 1.43 ± 0.082
  POMC normalized to control: 1.22 ± 0.009
[5]; SRM 1650b
  particle induced POMC release (result in words): capable to inhibit
[6]; 10 μM + 1 μM BaP, DMSO = 1.00, BaP alone 20.78 ± 1.04
  Relative luciferase activity (fold of DMSO control): 12.28 ± 4.90 fold of DMSO control
[6]; 20 μM + 1 μM BaP, DMSO = 1.00, BaP alone 20.78 ± 1.04
  Relative luciferase activity (fold of DMSO control): 9.60 ± 1.32 fold of DMSO control
[6]; 20 μM alone, no BaP, DMSO = 1.00
  Relative luciferase activity (fold of DMSO control): 1.06 ± 0.45 fold of DMSO control
[1]
  particle induced IL-6 gene expression (result in words): capable to inhibit
[1]; 0.00001%, untreated = 1, particles alone 1.90 ± 0.04
  IL-6 6 h gene expression: 1.53 ± 0.04
[1]; 0.00005%, untreated = 1, particles alone 1.90 ± 0.04
  IL-6 6 h gene expression: 1.42 ± 0.02
[2]
  particle induced MMP1 gene expression (result in words): capable to inhibit
[2]; 0.00001%
  MMP-1 24 h gene expression: 1.41 ± 0.04
[2]; 0.00005%
  MMP-1 24 h gene expression: 1.29 ± 0.02
[4]
  particle induced POMC gene expression (result in words): capable to inhibit
[4]; 10 μM, SRM1650b, untreated = 1, particles alone 1.50 ± 0.06
  POMC 24 h gene expression: 1.03 ± 0.07
[4]; 10 μM, SRM2975, untreated = 1, particles alone 1.30 ± 0.00
  POMC 24 h gene expression: 0.73 ± 0.06
